{"source": "patent US20080193563A1", "about": "“HARNESSING WNT SIGNALING TO RESTRICT HIV REPLICATION” (priority 2006, published 2008)", "key": {"[1]": {"system": "IFNγ, GM-CSF and TNFγ receptors on U87MG", "experiment": "Cytokine receptor expression on U87MG by flow cytometry", "type": "cell-based, human", "details": "24-hour treatment", "procedure": "(§1) U87MG (A) or HFA (B) were left untreated or treated with GM-CSF (50 ng/ml), IFNγ100 ng/ml) or TNFγ100 ng/ml). […] Percent expression of GM-CSF receptor (R), IFNγR, and TNFγR was measured 24 hours post-stimulation by flow cytometry. Data is representative of three experiments. Error bars represent standard deviations of the mean.\n(§2) Prior to evaluating if GM-CSF, IFNγ, and TNFγ can augment HIV replication of astrocytes, a question was whether U87MG and HFA express the respective cytokine receptors. U87MG and HFA were treated with or without the respective cytokine for 24 hours and cytokine receptor expression was evaluated by flow cytometry. Approximately 35% of U87MG expressed the IFNγ receptor and a low level of GM-CSF and TNFγ receptors (<8%; FIG. 3A). […] Untreated HFA expressed only low levels of IFNγ receptor (6%) and this expression was abrogated with IFNγ treatment. GM-CSF and TNFγ receptors were not expressed on HFA."}, "IFNγ receptor on HFA": {"system": "IFNγ receptor on HFA", "experiment": "Cytokine receptor expression on HFA by flow cytometry", "type": "cell-based, human", "details": "untreated 6%", "procedure": "as §1, §2"}, "CD4, hMR, CXCR4 on HFA": {"system": "CD4, hMR, CXCR4 on HFA", "experiment": "HIV receptor and chemokine co-receptor expression on HFA by flow cytometry", "type": "cell-based, human", "procedure": "(§3) U87MG (A) and HFA (B) were left untreated or treated GM-CSF (50 ng/ml) or IFNγ (100 ng/ml) for 24 h. Expression of receptors on the x-axis was measured by flow cytometry. Isotype refers to mouse IgG. Data is representative of three experiments. Error bars represent standard deviation of the mean. (C). IFNγ up-regulates D6 on U87MG cells. U87MG were left untreated or treated with IFNγ. After 3 days, the cells were immunostained with anti-D6 or isotype antibodies. The first histogram (peak) represents isotype control; the dark shaded histogram represents untreated cultures, and the third histogram (peak) represents IFNγ-treated cultures. Data is typical of quadruplet experiments.\n(§4) Because IFNγ was a potent cytokine in inducing HIV infection of astrocytes, it was determined whether IFNγ treatment modulated key HIV receptors CD4, human mannose receptor D6 and co-receptors (CCR1, CCR2, CCR3, CXCR4, and CCR5) for HIV infection. U87MG is human mannose receptor (hMR) […] (FIG. 5). However, hMR was not detected on HFA, which may be regulated by the differentiation stage of the HFA (FIG. 5 (B)). CD4 and hMR expression in both U87MG and HFA was not augmented by IFNγ or GM-CSF (FIG. 5(A)-(B)). […] HFA were positive for CXCR4 (12%), but its expression was not augmented by GM-CSF or IFNγ treatment (FIG. 5B). IFNγ was reported to enhance CXCR4 and CCR5 expression on simian adult astrocytes, which is in contrast to data on human fetal astrocytes highlighting a discrepancy between simian adult and human fetal astrocytes. […] Infection of U87MG and HFA with a T-tropic isolate (IIIB), while it was productive, was not enhanced by cytokine pre-treatment. This may be a consequence of the laboratory adapted HIV IIIB, therefore primary T-tropic or dual tropic strains may still be responsive to IFNγ pre-treatment of astrocytes. Recently, the CC chemokine receptor D6 was identified as a functional co-receptor for primary HIV infection of astrocytes."}, "HIV-Bal in HFA": {"system": "HIV-Bal in HFA", "experiment": "Cytokine pre-stimulation and HIV-Bal replication in human fetal astrocytes, p24 ELISA", "type": "cell-based", "details": "24 h pre-stimulation, p24 day 7", "procedure": "U87MG (A) and HFA (B) were pre-stimulated with increasing doses of either GM-CSF or IFNγ for 24 h followed by HIV-BAL infection for 24 hours. HIV replication was determined by measuring HIV p24 levels by ELISA seven days post-infection. The dotted line represents basal level of HIV infection of astrocytes without cytokine pre-treatment. Data is representative of three experiments performed in quadruplicate. Error bars represent standard deviations of the mean. Asterisks denote significant values (p<0.05) in comparison to untreated cultures as evaluated by analysis of variance.\nTo determine if pre-stimulation of astrocytes primes astrocytes, for productive HIV infection, U87MG and HFA were pre-treated for 24 hours with TNFγ, GM-CSF, or IFNγ at various concentrations (0-1000 ng/ml) then infected with HIV-Bal at 10 ng of HIV p24/1×10^6 cells for 24 hours. The cells were then washed extensively or trypsinized to remove bound virus and propagated in the presence of the respective cytokine concentration. HIV infection was monitored by p24 ELISA seven days post-infection. […]\nIFN-γ Treatment and HIV Infection. […] HIV infection was monitored at day 7 postinfection by measuring p24 levels by conventional enzyme-linked immunosorbent assay (ELISA) (National Cancer Institute, Frederick, Md.)."}, "[2]": {"system": "CD4, hMR, CCR1, D6 on U87MG", "experiment": "HIV receptor and chemokine co-receptor expression on U87MG by flow cytometry", "type": "cell-based, human", "procedure": "as §3, §4"}}}
{"substance": "IFNγ: cytokine secreted by lymphocytes, activated microglia and astrocytes; used to prime astrocytes", "values": [{"measurement": "Down-regulation of IFNγ receptor expression", "setting": "[1]", "value": 2, "unit": "fold"}, {"measurement": "IFNγ receptor expression after treatment", "setting": "[1]; untreated approximately 35%", "value": "approximately 15%"}, {"measurement": "IFNγ receptor expression after treatment", "setting": "IFNγ receptor on HFA", "value": "abrogated"}, {"measurement": "CD4 and hMR expression", "setting": "CD4, hMR, CXCR4 on HFA", "value": "not augmented"}, {"measurement": "CXCR4 expression", "setting": "CD4, hMR, CXCR4 on HFA; untreated 12%", "value": "not augmented"}, {"measurement": "Induction of HIV replication", "setting": "HIV-Bal in HFA", "value": 2, "unit": "fold"}, {"measurement": "CD4 and hMR expression", "setting": "[2]", "value": "not augmented"}, {"measurement": "Up-regulation of CCR1 expression", "setting": "[2]; 24 h treatment", "value": 4, "unit": "fold"}, {"measurement": "Up-regulation of D6 expression", "setting": "[2]; 3 days", "value": 6, "unit": "fold"}]}
